How the values were obtained:
WM1366 [1] = assay: MTT cell viability assay of SEMEs and excipients (60 min); format: cell-based, human; conditions: WM1366, 60 min incubation; mean (95% CI), n = 5; >Max Conc. = not reaching the sensitive range
Method: (§1) Human melanoma cell lines (WM164, WM1366, and D24), spontaneously immortalized normal human keratinocytes (HaCaT), and primary skin fibroblast cells were kindly provided by A/Prof. Helmut Schaider’s laboratory (University of Queensland Diamantina Institute). The cells were grown in RPMI medium (+ L-glutamine) supplemented with 5% (v/v) FBS and 2% penicillin/streptomycin—except for the fibroblast cells which were cultured in DMEM. Cells were routinely grown in culture flasks and maintained at 37 °C in a humidified 5% CO2 atmosphere. The culture media was replaced with fresh media every two to three days. Cells were detached using trypsin–EDTA when they reached approximately 80% confluence to seed or subculture. A low passage number (6–12) of primary fibroblast was used during the experiments, and regular microbial contamination testing was done.
(§2) To exclude any toxic effect of the blank SEMEs and their constituents on human skin cells, an MTT cell viability test was performed based on the original protocol. In this assay, the yellow tetrazolium salt MTT is reduced to insoluble purple formazan crystals by metabolically live cells.
(§3) After 60 min incubation of treated cells, the excipient-containing medium was removed, and 100 μL of MTT in PBS (5 mg/mL) diluted 1:10 in medium was then added. Plates were further incubated in the dark for 2–3 h, after which time the wells were emptied and the purple formazan was dissolved by addition of 200 μL of DMSO to each well. Plates were located in a shaker for 5 min at room temperature and the absorbance of the solutions in the wells was measured at 570 nm using a microplate reader (Multiskan™ FC Microplate Photometer). The impact of each treatment was determined as the percentage of reduced tetrazolium salt against the control cells (untreated cells with medium only).
(§4) The cytotoxicity at each excipient concentration was expressed as a percentage of viability against the untreated control wells (the mean optical density of untreated cells was set at 100% viability) to construct a dose-dependent cytotoxicity plot.
(§5) The percentage viability was calculated as follows (Equation (1)):(1) % Viability= Mean absorbance of treated wells/Mean absorbance of control wellno excipients ×100.
(§6) The cytotoxicity of the excipients and formulations (treatments) was expressed as an IC50 value (concentration causing 50% death of the cell population). The IC50 value for each treatment concentration was calculated from the dose–response curves plotted in GraphPad Prism 7 (GraphPad Software Inc. California, USA) with log (treatment concentration) on the x-axis and percentage survival on the y-axis. The IC50 value was obtained by fitting the dose–response curve with a nonlinear regression curve (Dose-response-inhibition) on GraphPad Prism 7. […] All IC50 values were expressed as v/v (%).

WM164 [2] = assay: as above; format: cell-based, human; conditions: WM164, 60 min incubation; mean (95% CI), n = 5; >Max Conc. = not reaching the sensitive range for the applied concentrations
Method: as §1, §2, §3, §4, §5, §6

HaCaT [3] = assay: as above; format: cell-based, human; conditions: 60 min incubation, mean (95% CI), n = 5, >Max Conc. = not reaching the sensitive range
Method: as §1, §2, §3, §4, §5, §6

[4] = system: primary skin fibroblast cells; assay: as above; format: cell-based, human; conditions: 60 min incubation, mean (95% CI), n = 5, >Max Conc. = not reaching the sensitive range
Method: as §1, §2, §3, §4, §5, §6

D24 [5] = assay: as above; format: cell-based, human; conditions: D24, 60 min incubation; mean (95% CI), n = 5; >Max Conc. = not reaching the sensitive range
Method: as §1, §2, §3, §4, §5, §6

[6] = system: WM164, WM1366, D24, HaCaT and fibroblast cells; assay: MTT cell viability assay of excipients, all tested cell lines together; format: cell-based, human; conditions: 60 min MTT; maximum concentration used 10 (v/v %)
Method: To exclude any toxic effect of the blank SEMEs and their constituents on human skin cells, an MTT cell viability test was performed based on the original protocol. In this assay, the yellow tetrazolium salt MTT is reduced to insoluble purple formazan crystals by metabolically live cells. After 60 min incubation of treated cells, the excipient-containing medium was removed, and 100 μL of MTT in PBS (5 mg/mL) diluted 1:10 in medium was then added. Plates were further incubated in the dark for 2–3 h, after which time the wells were emptied and the purple formazan was dissolved by addition of 200 μL of DMSO to each well. Plates were located in a shaker for 5 min at room temperature and the absorbance of the solutions in the wells was measured at 570 nm using a microplate reader (Multiskan™ FC Microplate Photometer). The impact of each treatment was determined as the percentage of reduced tetrazolium salt against the control cells (untreated cells with medium only). […] The IC50 value for each treatment concentration was calculated from the dose–response curves plotted in GraphPad Prism 7 (GraphPad Software Inc. California, USA) with log (treatment concentration) on the x-axis and percentage survival on the y-axis. […] All IC50 values were expressed as v/v (%).

[7] = parameters: method as in PubChem; conditions: ref PubChem; cited from earlier work
WM1366 [8] = assay: Cell cycle analysis by flow cytometry (PI staining, sub G0G1); format: cell-based, human; conditions: WM1366, 50 µM RB, 24-h treatment; untreated 0.89
Method: (§7) Apoptotic cells were detected using Propidium Iodide (PI) staining of treated cells followed by flow cytometry to detect the sub-G1 peak. It has been reported that small segments of DNA caused by DNA fragmentation can be eluted following incubation in a hypotonic phosphate-citrate buffer. When stained with a quantitative DNA binding dye such as PI, cells that have lost DNA will take up less stain and will appear to the left of the G1 peak.
(§8) Briefly, melanoma cells were cultured overnight in a 6-well plate to subconfluence and treated with RB (50 µM) for 24 h. Floating and adherent cells were harvested by a trypsin-based method and fixed by ice cold 70% ethanol. Cells were incubated at 4 °C for at least 24 h in the dark and stained using 70 μM Propidium Iodide in 500 µl of a 38-mM hypotonic tri-sodium citrate buffer supplemented with 5 μg/mL RNase A before flow cytometric analysis using a FACScan. […]
(§9) 6. Cell Cycle Analysis by Flow Cytometry
(§10) After determining that RB decreased cell viability of human skin melanoma cells in a dose-dependent manner, the mechanism of cell death was investigated by flow cytometry. As RB-induced cell death was evident upon exposure to concentrations >50 μM, the cells were treated with 50-μM RB in water, SEME+PG and SEME-PG for 24 h for cell cycle analysis. […]
(§11) increases in apoptotic cell populations when cells were treated with RB-loaded SEMEs compared to […]
(§12) selective cell death mechanism could be a key for an effective antimelanoma drug.
(§13) Figure S7. Cell cycle histograms after RB treatment. RB induces apoptosis in melanoma cells. Flow cytometry histograms of apoptosis assays by the PI method. Cells were treated with 50 μM of RB incorporated in different delivery systems for 24 h. The SubG0G1 region (shown by asterisks) indicates the presence of apoptotic cells induced in melanoma cells treated with RB incorporated in SEMEs.
(§14) The percentages of apoptotic cell populations in cancerous and non-cancerous cells are shown in […]
(§15) Table 4 of the manuscript. […]
(§16) with RB loaded in a SEME containing PG.

Fibroblast = assay: as above; format: cell-based, human; conditions: 50 µM RB, 24-h treatment, untreated 0.00
Method: as §7, §8, §9, §10, §11, §12, §13, §14, §15, §16

WM164 [9] = assay: as above; format: cell-based, human; conditions: WM164, 50 µM RB, 24-h treatment; untreated 3.94
Method: as §7, §8, §9, §10, §11, §12, §13, §14, §15, §16

D24 [10] = assay: as above; format: cell-based, human; conditions: D24, 50 µM RB, 24-h treatment; untreated 2.54
Method: as §7, §8, §9, §10, §11, §12, §13, §14, §15, §16

HaCaT [11] = assay: as above; format: cell-based, human; conditions: 50 µM RB, 24-h treatment, untreated 1.07
Method: as §7, §8, §9, §10, §11, §12, §13, §14, §15, §16

WM1366 [12] = assay: MTT assay, inhibitory effect of RB in different delivery systems; format: cell-based, human
Method: as §1
(§17) For the 72-h MTT assay, cells were seeded into flat bottom 96-well cell culture plates in 100 μL of complete culture medium at the initial density of […]. Cells were incubated under 5% CO2 at 37 °C for 24 h for adhering to the wells and medium was then replaced with 100 μL of fresh medium containing treatment solution at the required final concentration. Each concentration was tested in 3 replicates in 3 independent studies and control cells were exposed to the culture medium only.
(§18) The MTT cell viability assay was also used as a proxy measure for cell proliferation. Cells were plated in 96-well culture plates, at a density of 8000 cells per well in 100 μL of medium and incubated for 24 h. Treatment solutions of active drug in milli-Q® water or incorporating in SEME were prepared in cell culture medium immediately before use and added in a volume of 100 μL at desired final concentrations. After a specific period, cell viability was evaluated by MTT assay. All experiments were performed in triplicate.
as §6

WM164 [13] = assay: as above; format: cell-based, human
Method: as §1, §17, §18, §6

[14] = system: primary skin fibroblast cells; assay: as above; format: cell-based, human
Method: as §1, §17, §18, §6

D24 [15] = assay: as above; format: cell-based, human
Method: as §1, §17, §18, §6

HaCaT [16] = assay: as above; format: cell-based, human
Method: as §1, §17, §18, §6

CC(O)CO (centres unmarked) [PG, propylene glycol]
IC50 (WM1366 [1]): >Max Conc. | IC50 (WM164 [2]): >Max Conc. | IC50 (HaCaT [3]): >Max Conc.

CCOCCOCCO [Transcutol®, diethylene glycol monoethyl ether]
IC50 (WM1366 [1]): >Max Conc. | IC50 (WM164 [2]): ~5.6 (very wide) v/v % | IC50 [4]: >Max Conc. | IC50 (D24 [5]): 4.55 (3.1-8.2) v/v % | IC50 (HaCaT [3]): 5.75 (very wide) v/v % | IC50, range over all the cell lines [6]: ≥ 4.55 v/v (%)

O=C([O-])c1c(Cl)c(Cl)c(Cl)c(Cl)c1-c1c2cc(I)c(=O)c(I)c-2oc2c(I)c([O-])c(I)cc12.[Na+].[Na+] [RB, 4,5,6,7-tetrachloro-2, 4′, 5′, 7--tetraiodofluorescein disodium salt]
log P [7]: 7.6 | Apoptotic Cells % (Sub G0G1) (WM1366 [8]): 2.29% | Apoptotic Cells % (Sub G0G1) (Fibroblast): 0.99% | Apoptotic Cells % (Sub G0G1) (WM164 [9]): 6.69% | Apoptotic Cells % (Sub G0G1) (D24 [10]): 2.66% | Apoptotic Cells % (Sub G0G1) (HaCaT [11]): 1.15% | IC50 (WM1366 [12]; RB and encapsulated RB, WM1366, 48 h incubation, concentration of RB, mean (95% CI), n = minimum of 4, read-out: IC50): 98.9 µM | IC50 (WM1366 [12]; RB aqueous solution, WM1366, 24 h): >Max Conc. | IC50 (WM1366 [12]; RB aqueous solution, WM1366, 48 h (Table 2), read-out: IC50): 110 µM | IC50 (WM1366 [12]; RB aqueous solution, WM1366, 72 h, read-out: IC50): ~114 µM | IC50 (WM164 [13]; RB and encapsulated RB, WM164, 48 h incubation, concentration of RB, mean (95% CI), n = minimum of 4, vehicle concentration constant): 103 µM | IC50 (WM164 [13]; RB aqueous solution, WM164, 24 h): 112 µM | IC50 (WM164 [13]; RB aqueous solution, WM164, 48 h (Table 2)): 107 µM | IC50 (WM164 [13]; RB aqueous solution, WM164, 72 h): 109 µM | IC50 ([14]; RB and encapsulated RB, 48 h incubation, concentration of RB, mean (95% CI), n = minimum of 4): 188 µM | IC50 ([14]; RB aqueous solution, 24 h): 238 µM | IC50 ([14]; RB aqueous solution, 48 h (Table 2)): 459 µM | IC50 ([14]; RB aqueous solution, 72 h): 108 µM | IC50 (D24 [15]; RB and encapsulated RB, D24, 48 h incubation, concentration of RB, mean (95% CI), n = minimum of 4): 45.6 µM | IC50 (D24 [15]; RB aqueous solution, D24, 24 h): 131 µM | IC50 (D24 [15]; RB aqueous solution, D24, 48 h (Table 2)): 70 µM | IC50 (D24 [15]; RB aqueous solution, D24, 72 h): 27.3 µM | IC50 (HaCaT [16]; RB and encapsulated RB, 48 h incubation, concentration of RB, mean (95% CI), n = minimum of 4, read-out: IC50): 153 µM | IC50 (HaCaT [16]; RB aqueous solution, 24 h, read-out: IC50): 2250 µM | IC50 (HaCaT [16]; RB aqueous solution, 48 h (Table 2), read-out: IC50): 221 µM | IC50 (HaCaT [16]; RB aqueous solution, 72 h): >Max Conc.

From PMC7600403, “Development of an Oil-in-Water Self-Emulsifying Microemulsion for Cutaneous Delivery of Rose Bengal: Investigation of Anti-Melanoma Properties” (Pharmaceutics, 2020)
